# According to ChEMBL document CHEMBL4387706, “Discovery of Novel Spiroindoline Derivatives as Selective Tankyrase Inhibitors” (J Med Chem, 2019):
# Columns and labels:
# [1] = in vitro; details: human, liver microsomes
# Description: Stability in human liver microsomes assessed as parent compound remaining at 1 uM measured after 30 mins in presence of NADPH by LC-MS/MS analysis
# [2] = physchem; details: phosphate buffer, pH 7.4
# [3] = in vitro; details: mouse, liver microsomes
# Description: Stability in mouse liver microsomes assessed as parent compound remaining at 1 uM measured after 30 mins in presence of NADPH by LC-MS/MS analysis
# [4] = target: T1, Poly [ADP-ribose] polymerase tankyrase-1 (Homo sapiens, UniProt O95271)
# T1 sequence (O95271 whole entry): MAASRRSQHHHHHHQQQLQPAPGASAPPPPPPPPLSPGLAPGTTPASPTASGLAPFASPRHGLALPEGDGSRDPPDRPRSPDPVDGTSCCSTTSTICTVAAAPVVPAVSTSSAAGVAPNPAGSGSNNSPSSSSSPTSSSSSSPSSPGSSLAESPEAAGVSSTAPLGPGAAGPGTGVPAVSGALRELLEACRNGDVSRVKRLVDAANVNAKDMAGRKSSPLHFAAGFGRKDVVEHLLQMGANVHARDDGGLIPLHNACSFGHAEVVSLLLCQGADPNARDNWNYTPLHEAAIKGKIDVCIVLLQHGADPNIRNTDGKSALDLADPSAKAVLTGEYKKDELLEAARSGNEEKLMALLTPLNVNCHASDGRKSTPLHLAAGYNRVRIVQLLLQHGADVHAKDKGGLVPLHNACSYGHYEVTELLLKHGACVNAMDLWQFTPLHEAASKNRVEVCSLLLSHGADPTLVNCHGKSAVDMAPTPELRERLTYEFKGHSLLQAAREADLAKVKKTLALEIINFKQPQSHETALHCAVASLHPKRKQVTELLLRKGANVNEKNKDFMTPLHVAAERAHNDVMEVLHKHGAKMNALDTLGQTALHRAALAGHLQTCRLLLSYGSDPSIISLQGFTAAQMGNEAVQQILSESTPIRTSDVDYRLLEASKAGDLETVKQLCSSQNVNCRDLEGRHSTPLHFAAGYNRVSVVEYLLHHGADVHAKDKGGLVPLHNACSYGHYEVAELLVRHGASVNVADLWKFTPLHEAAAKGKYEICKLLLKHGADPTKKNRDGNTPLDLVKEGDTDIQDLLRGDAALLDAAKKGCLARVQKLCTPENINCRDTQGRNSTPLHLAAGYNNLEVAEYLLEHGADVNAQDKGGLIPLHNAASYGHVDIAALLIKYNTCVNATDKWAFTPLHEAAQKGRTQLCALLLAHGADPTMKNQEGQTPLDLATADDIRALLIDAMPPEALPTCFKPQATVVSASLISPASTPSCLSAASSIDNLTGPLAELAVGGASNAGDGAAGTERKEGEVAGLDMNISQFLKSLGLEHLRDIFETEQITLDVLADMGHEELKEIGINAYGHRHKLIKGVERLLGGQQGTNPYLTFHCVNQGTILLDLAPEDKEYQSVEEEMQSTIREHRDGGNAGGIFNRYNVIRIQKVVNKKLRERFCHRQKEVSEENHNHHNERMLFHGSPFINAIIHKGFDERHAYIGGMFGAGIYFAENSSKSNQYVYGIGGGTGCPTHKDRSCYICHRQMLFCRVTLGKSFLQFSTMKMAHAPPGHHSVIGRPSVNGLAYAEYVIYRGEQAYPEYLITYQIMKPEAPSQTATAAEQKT
# Description: Inhibition of recombinant human N-terminal TEV cleavage site-fused/FLAG-poly his-tagged TNKS SAM-PARP domain (1024 to 1327 residues) expressed in Escherichia coli assessed as reduction in auto-PARylation preincubated for 10 mins followed by biotinylated-NAD+ addition and measured after 45 mins by ELISA
# [5] = target: T2, Poly [ADP-ribose] polymerase tankyrase-2 (Homo sapiens, UniProt Q9H2K2)
# T2 sequence (Q9H2K2 whole entry): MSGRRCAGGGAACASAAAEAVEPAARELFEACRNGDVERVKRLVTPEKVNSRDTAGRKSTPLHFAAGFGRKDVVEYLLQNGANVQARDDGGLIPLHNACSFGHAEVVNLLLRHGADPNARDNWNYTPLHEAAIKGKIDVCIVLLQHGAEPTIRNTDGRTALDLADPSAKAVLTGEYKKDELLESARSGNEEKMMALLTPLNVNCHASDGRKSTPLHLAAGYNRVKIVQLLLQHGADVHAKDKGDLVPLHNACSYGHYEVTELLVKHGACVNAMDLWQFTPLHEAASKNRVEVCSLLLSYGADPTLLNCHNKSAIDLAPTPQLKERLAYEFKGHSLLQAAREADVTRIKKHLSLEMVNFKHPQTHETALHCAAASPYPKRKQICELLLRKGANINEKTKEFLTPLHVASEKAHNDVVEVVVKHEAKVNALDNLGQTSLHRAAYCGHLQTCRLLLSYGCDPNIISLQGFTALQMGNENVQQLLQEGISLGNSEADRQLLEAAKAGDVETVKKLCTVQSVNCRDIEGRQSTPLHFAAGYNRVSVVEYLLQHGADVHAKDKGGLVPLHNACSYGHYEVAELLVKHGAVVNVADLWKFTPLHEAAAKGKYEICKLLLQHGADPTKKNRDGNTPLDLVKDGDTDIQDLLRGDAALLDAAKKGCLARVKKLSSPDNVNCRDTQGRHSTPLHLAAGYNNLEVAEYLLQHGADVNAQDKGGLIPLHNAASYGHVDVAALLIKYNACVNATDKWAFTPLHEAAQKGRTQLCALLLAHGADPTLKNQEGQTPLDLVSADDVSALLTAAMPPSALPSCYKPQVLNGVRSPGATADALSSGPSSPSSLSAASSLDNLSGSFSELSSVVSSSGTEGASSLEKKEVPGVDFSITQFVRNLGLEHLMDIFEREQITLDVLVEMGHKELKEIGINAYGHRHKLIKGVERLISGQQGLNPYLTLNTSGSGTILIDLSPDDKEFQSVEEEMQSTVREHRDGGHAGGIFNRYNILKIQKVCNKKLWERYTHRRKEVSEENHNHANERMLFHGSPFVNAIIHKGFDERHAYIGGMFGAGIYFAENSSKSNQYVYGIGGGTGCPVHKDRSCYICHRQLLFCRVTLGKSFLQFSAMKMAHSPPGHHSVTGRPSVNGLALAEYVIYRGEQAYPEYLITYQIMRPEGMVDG
# Description: Inhibition of recombinant human N-terminal TEV cleavage site-fused/FLAG-poly his-tagged TNKS2 SAM-PARP domain (613 to 1166 residues) expressed in Escherichia coli assessed as reduction in auto-PARylation preincubated for 10 mins followed by biotinylated-NAD+ addition and measured after 45 mins by ELISA
# [6] = target: Poly [ADP-ribose] polymerase 1 (Homo sapiens, UniProt P09874)
# Description: Inhibition of recombinant human PARP1 expressed in Escherichia coli assessed as reduction in auto-PARylation using histone as substrate measured after 45 mins in presence of biotinylated-NAD+ by ELISA
# [7] = target: T3, Tankyrase 1/2 (Homo sapiens, UniProt Q9H2K2+O95271)
# T3 sequence (Q9H2K2 whole entry): T2 sequence (Q9H2K2 whole entry)
# T3 sequence (O95271 whole entry): T1 sequence (O95271 whole entry)
# Description: Inhibition of TNKS/TNKS2 (unknown origin) expressed in human DLD1 cells assessed as reduction in Wnt-signaling measured after 24 hrs by TCF-luciferase reporter gene assay
# [8] = tested on: COLO 320DM; assay: cells; details: Homo sapiens, 96 h
# Description: Antiproliferative activity against human COLO320DM cells assessed as inhibition of cell growth measured after 4 days by CellTiter-Glo assay
# [9] = tested on: RKO; assay: Antiproliferative activity against human RKO cells assessed inhibition of cell growth measured after 5 days by MTT assay; assay type: functional; details: 120 h
# [10] = target: Tankyrase 1/2 (Homo sapiens) (UniProt Q9H2K2+O95271); assay: Inhibition of TNKS/TNKS2 in human COLO320DM cells assessed as upregulation of AXIN2 expression at 0.1 uM measured after 16 hrs by Western blot analysis relative to G007-LK; assay type: cell-based
# [11] = tested on: COLO 320DM; assay: Antiproliferative activity against human COLO320DM cells assessed inhibition of cell growth measured after 5 days by MTT assay; assay type: functional; details: 120 h
# [12] = Permeability of the compound by PAMPA; assay type: ADME; details: read-out: permeability
# Chain of Poly [ADP-ribose] polymerase 1 (P09874 whole entry): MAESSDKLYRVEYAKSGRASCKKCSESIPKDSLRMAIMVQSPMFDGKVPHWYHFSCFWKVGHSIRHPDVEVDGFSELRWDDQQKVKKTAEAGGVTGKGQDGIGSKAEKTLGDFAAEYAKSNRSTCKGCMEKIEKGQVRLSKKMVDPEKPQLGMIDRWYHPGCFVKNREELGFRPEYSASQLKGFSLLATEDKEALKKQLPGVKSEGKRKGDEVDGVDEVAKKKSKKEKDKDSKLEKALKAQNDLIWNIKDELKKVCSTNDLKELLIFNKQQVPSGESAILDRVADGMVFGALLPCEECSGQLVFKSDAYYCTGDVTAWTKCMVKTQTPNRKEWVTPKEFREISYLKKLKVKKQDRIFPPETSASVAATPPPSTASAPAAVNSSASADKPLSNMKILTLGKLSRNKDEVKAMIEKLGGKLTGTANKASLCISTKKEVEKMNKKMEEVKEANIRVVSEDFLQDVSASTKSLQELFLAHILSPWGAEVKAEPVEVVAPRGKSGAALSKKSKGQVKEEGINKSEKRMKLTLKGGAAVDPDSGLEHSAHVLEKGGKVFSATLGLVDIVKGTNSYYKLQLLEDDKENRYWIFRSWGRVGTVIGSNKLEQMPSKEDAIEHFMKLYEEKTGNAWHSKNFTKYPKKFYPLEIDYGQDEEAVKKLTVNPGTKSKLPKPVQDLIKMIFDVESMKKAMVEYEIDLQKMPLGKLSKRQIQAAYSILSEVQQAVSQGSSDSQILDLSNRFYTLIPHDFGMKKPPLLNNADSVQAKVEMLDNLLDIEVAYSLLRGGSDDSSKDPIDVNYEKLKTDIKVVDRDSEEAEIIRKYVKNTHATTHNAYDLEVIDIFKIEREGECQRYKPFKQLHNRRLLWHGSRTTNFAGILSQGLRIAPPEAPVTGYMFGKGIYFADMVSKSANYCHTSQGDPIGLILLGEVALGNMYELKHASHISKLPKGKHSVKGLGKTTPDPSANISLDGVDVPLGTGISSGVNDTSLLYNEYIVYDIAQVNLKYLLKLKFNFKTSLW
SMILES,"remaining at 0.5 h, 1 µM [1] [%]","solubility at 1 h, 200 µM [2] [µg/mL]","remaining at 0.5 h, 1 µM [3] [%]",IC50 [4] [nM],IC50 [5] [nM],IC50 [6] [nM],IC50 [7] [nM],GI50 [8] [nM],GI50 [9] [nM],fold change (FC) [10],GI50 [11] [nM],Papp [12] [×10⁻⁶ cm/s]
O=c1[nH]c(N2CCC3(CC2)CNc2ccccc23)nc2c1CCCC2,77.9,1.6,34.7,28.5,20.7,> 20000,352,13100,–,–,–,–
O=c1[nH]c(N2CCC3(CC2)CN(CCO)c2cc(Cl)cc(Cl)c23)nc2c1CCCC2,–,5.2,–,18.2,16.4,> 20000,119,2900,40,4.03,4650,–
COc1ccccc1C1=CCN(c2nc3c(c(=O)[nH]2)CCCC3)CC1,99.3,14.2,91.7,35,49.7,> 20000,1161,6300,–,–,–,–
O=C1Oc2ccccc2C12CCN(c1nc3c(c(=O)[nH]1)CCCC3)CC2,28.1,1.17,0.1,30.2,18.3,> 20000,> 10000,> 50000,–,–,–,–
O=C1Nc2ccccc2C12CCN(c1nc3c(c(=O)[nH]1)CCCC3)CC2,84.3,64.2,0,27.6,25.1,> 20000,591,11200,–,–,–,–
O=c1[nH]c(N2CCC3(CC2)OCc2ccccc23)nc2c1CCCC2,76.3,1.07,0,31.5,35.7,> 20000,342,5800,–,–,–,–
O=c1[nH]c(N2CCC3(CC2)COc2ccccc23)nc2c1CCCC2,64.3,0.67,0.1,43.4,14.6,> 20000,608,10800,–,–,–,–
O=C1N(CCO)c2cc(Cl)cc(Cl)c2C12CCN(c1nc3c(c(=O)[nH]1)CCCC3)CC2,–,55.9,–,9,9.5,> 20000,19.8,2600,2610,8.03,450,43
O=C1N(CCO)c2ccccc2C12CCN(c1nc3c(c(=O)[nH]1)CCCC3)CC2,–,78.7,–,19,26,> 20000,918,12700,3400,0.98,2670,2.9
O=c1[nH]c(N2CCC3(CC2)NCc2ccccc23)nc2c1CCCC2,–,67,–,118,29.3,> 20000,1605,22400,–,–,–,–
O=c1[nH]c(N2CCC3(CC2)CN(CCO)c2ccccc23)nc2c1CCCC2,–,> 76.1,–,49.3,26.9,> 20000,362,3900,220,0.98,1770,17.4
O=C1N(CCO)c2cccc(F)c2C12CCN(c1nc3c(c(=O)[nH]1)CCCC3)CC2,–,80.1,–,6.8,8.2,> 20000,36.5,1800,2030,4.1,190,3.6
COc1cccc(N2CCN(c3nc4c(c(=O)[nH]3)CCCC4)CC2)c1,–,5.2,–,39.4,39.7,> 20000,1066,14200,–,–,–,–
O=c1[nH]c(N2CCC3(CC2)CN(CCO)c2cccc(F)c23)nc2c1CCCC2,–,74.6,–,9.2,11.8,> 20000,83.9,1400,90,3.63,260,7.6
COc1ccc(N2CCN(c3nc4c(c(=O)[nH]3)CSCC4)CC2)cc1,–,0.9,–,3.4,2.6,> 20000,114,> 50000,–,–,–,–
COc1ccccc1N1CCN(c2nc3c(c(=O)[nH]2)C[S+]([O-])CC3)CC1 (stereo unspecified),–,8.8,–,6170,5340,> 20000,> 10000,> 20000,–,–,–,–
COc1ccc(N2CCN(c3nc4c(c(=O)[nH]3)COCC4)CC2)cc1,–,6,–,220,148,> 20000,2246,> 20000,–,–,–,–
O=C1NC2(CCN(c3nc4c(c(=O)[nH]3)CCCC4)CC2)c2ccccc21,–,70.1,–,514,258,> 20000,> 10000,97700,–,–,–,–
COc1ccccc1C1CCN(c2nc3c(c(=O)[nH]2)CCCC3)CC1,62.1,1,0,65.4,67.6,> 20000,531,4600,–,–,–,–
